The target in the experiment is CDK-activating kinase assembly factor MAT1/Cyclin-H/Cyclin-dependent kinase 7 (Homo sapiens, UniProt P50613). Put plainly: In Vitro Kinase assay (CDK7) and IC 50 determination. On the procedure: The kinase assay was carried out by Sundia MediTech Co., Ltd.
Sequence of CDK-activating kinase assembly factor MAT1/Cyclin-H/Cyclin-dependent kinase 7 (P51946 whole entry): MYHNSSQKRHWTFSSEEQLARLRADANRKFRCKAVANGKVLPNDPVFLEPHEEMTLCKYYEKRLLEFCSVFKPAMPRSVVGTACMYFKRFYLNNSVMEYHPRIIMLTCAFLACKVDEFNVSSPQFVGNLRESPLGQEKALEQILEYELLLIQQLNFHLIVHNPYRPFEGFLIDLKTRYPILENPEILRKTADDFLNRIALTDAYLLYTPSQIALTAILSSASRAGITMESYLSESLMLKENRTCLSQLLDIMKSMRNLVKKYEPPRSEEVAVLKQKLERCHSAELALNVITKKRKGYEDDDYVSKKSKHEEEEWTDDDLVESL
Sequence of CDK-activating kinase assembly factor MAT1/Cyclin-H/Cyclin-dependent kinase 7 (P50613 whole entry): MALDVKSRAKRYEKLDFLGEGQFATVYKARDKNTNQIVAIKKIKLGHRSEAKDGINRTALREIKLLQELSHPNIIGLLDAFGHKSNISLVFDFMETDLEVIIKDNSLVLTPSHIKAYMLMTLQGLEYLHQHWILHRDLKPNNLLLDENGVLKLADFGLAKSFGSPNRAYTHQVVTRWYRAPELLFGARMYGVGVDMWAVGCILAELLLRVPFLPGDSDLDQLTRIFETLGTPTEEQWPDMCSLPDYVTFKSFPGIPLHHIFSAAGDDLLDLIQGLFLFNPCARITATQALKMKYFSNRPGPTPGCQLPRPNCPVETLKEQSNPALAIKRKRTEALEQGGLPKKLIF
Sequence of CDK-activating kinase assembly factor MAT1/Cyclin-H/Cyclin-dependent kinase 7 (P51948 whole entry, further chain): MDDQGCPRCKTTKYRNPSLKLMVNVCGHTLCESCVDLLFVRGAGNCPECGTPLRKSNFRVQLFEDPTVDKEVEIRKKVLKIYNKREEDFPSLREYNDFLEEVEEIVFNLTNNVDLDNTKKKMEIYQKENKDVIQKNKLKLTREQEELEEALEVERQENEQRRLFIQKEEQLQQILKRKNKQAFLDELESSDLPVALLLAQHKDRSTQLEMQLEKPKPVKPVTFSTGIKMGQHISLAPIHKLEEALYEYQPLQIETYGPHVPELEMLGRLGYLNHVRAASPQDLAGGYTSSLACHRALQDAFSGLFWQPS

`CC(C)c1cnn2c(NCc3nc4cc(C(F)(F)F)ccc4s3)cc(NC[C@H]3CCNC[C@@H]3O)nc12` [WO2023001061, Example 38] displayed an IC50 below 50 nM.
Regarding `CC(C)c1cnn2c(NCC3CCCN3C)cc(NC[C@H]3CCNC[C@@H]3O)nc12` (stereo not given in full) [WO2023001061, Example 2], the IC50 is below 50 nM.
With `CC(C)c1cnn2c(NCc3ccn[nH]3)cc(NC[C@H]3CCNC[C@@H]3O)nc12` [WO2023001061, Example 9] the figure was below 50 nM.
With `CC(C)c1cnn2c(NCC3CCCN3C)nc(OC3CCN(C)CC3)nc12` (stereo not given) [WO2023001061, Example 23] the figure was below 500 nM; with `Cc1cc(CNc2nc(OC3CCN(C)CC3)nc3c(C(C)C)cnn23)n(C2CC2)n1` [WO2023001061, Example 28], below 50 nM; with `CC(C)c1cnn2c(NCc3ccccc3N(C)C)cc(OC3CCN(C)CC3)nc12` [WO2023001061, Example 1], below 50 nM.
In the case of `CC(C)c1cnn2c(NCc3nc4ccccc4s3)cc(NC[C@H]3CCNC[C@@H]3O)nc12` [WO2023001061, Example 30], the IC50 was below 50 nM.
As for `CC(C)c1cnn2c(NCc3ccc4cccc(N(C)C)c4n3)nc(OC3CCN(C)CC3)nc12` [WO2023001061, Example 27], the IC50 is below 50 nM.
In the case of `CC(C)c1cnn2c(NCc3ccnn3C)cc(NC[C@H]3CCNC[C@@H]3O)nc12` [WO2023001061, Example 6], the IC50 was below 50 nM.
With `CC(C)c1cnn2c(NCc3cccnc3N(C)C)cc(NC[C@H]3CCNC[C@@H]3O)nc12` [WO2023001061, Example 15] the figure was below 50 nM.
`CC(C)c1cnn2c(NCc3nc4cc(N(C)C)ccc4s3)cc(NC[C@H]3CCNC[C@@H]3O)nc12` [WO2023001061, Example 4] registered an IC50 below 50 nM.
Then `CC(C)c1cnn2c(NCc3ccc4cccc(N(C)C)c4n3)cc(NC[C@H]3CCNC[C@@H]3O)nc12` [WO2023001061, Example 5], with below 50 nM; and `CC(C)c1cnn2c(NCc3nccs3)cc(NC[C@H]3CCNC[C@@H]3O)nc12` [WO2023001061, Example 31], with below 50 nM.
Then `CC(C)c1cnn2c(NCC3CCCN3C)cc(OC3CCN(C)CC3)nc12` (stereo not given) [WO2023001061, Example 8], with below 500 nM.
Then `CC(C)c1cnn2c(NCc3ccnn3C)nc(OC3CCN(C)CC3)nc12` [WO2023001061, Example 26], with below 50 nM.
Molecule `CC(C)c1cnn2c(NCc3ccnn3C)cc(OC3CCN(C)CC3)nc12` [WO2023001061, Example 7] came in with an IC50 below 50 nM.
Take `CC(C)c1cnn2c(NCc3nc4cc(Cl)ccc4s3)cc(NC[C@H]3CCNC[C@@H]3O)nc12` [WO2023001061, Example 39]: the IC50 was below 50 nM.
For `CC(C)c1cnn2c(NCc3ccnn3C(C)C)cc(NC[C@H]3CCNC[C@@H]3O)nc12` [WO2023001061, Example 10], the IC50 was below 50 nM.
Then `CC(C)c1cnn2c(NCc3nc4ccccc4n3C)cc(NC[C@H]3CCNC[C@@H]3O)nc12` [WO2023001061, Example 36], with below 50 nM; and `CC(C)c1cnn2c(NCc3nc(C4CC4)cs3)cc(NC[C@H]3CCNC[C@@H]3O)nc12` [WO2023001061, Example 48], with below 50 nM.
`CC(C)c1cnn2c(NCc3nn(C)c4ccccc34)cc(NC[C@H]3CCNC[C@@H]3O)nc12` [WO2023001061, Example 35] displayed an IC50 below 50 nM.
Then `CC(C)c1cnn2c(NCc3ccn(C)n3)cc(NC[C@H]3CCNC[C@@H]3O)nc12` [WO2023001061, Example 29], with below 50 nM.
In turn, `CC(C)c1cnn2c(NCc3cncn3C)cc(NC[C@H]3CCNC[C@@H]3O)nc12` [WO2023001061, Example 13] registered an IC50 below 50 nM.
With `CC(C)c1cnn2c(NCc3nccn3C)cc(NC[C@H]3CCNC[C@@H]3O)nc12` [WO2023001061, Example 14] the figure was below 50 nM.
`CC(C)c1cnn2c(NCc3ccnn3C3CC3)cc(NC[C@H]3CCNC[C@@H]3O)nc12` [WO2023001061, Example 11]: the concentration for half-maximal inhibition (IC50) is below 50 nM.

Values taken from BindingDB's records for patent WO2023001061 (Jingrui Biopharma, 2023).
